Laboratory results taken from ChEMBL document CHEMBL1130588, “Biaryl acids: novel non-nucleoside inhibitors of HIV reverse transcriptase types 1 and 2” (Bioorg Med Chem Lett, 1998).

Key:
[1] = target: T1, Human immunodeficiency virus type 1 reverse transcriptase (Human immunodeficiency virus 1, UniProt Q72547); test: Evaluated for inhibition of HIV-1 reverse transcriptase
[2] = target: T1, Human immunodeficiency virus type 1 reverse transcriptase; test: Compound was evaluated for inhibition of HIV-1 reverse transcriptase using rC.dG and [3H]dGTP as substrates at 100 ug/mL
[3] = target: T1, Human immunodeficiency virus type 1 reverse transcriptase; test: Evaluated for inhibition of HIV-1 reverse transcriptase; Inactive means <50% inhibition at 100 ug/mL concentration
[4] = target: T1, Human immunodeficiency virus type 1 reverse transcriptase; test: Compound was evaluated for inhibition of HIV-1 reverse transcriptase using rC.dG and [3H]dGTP as substrates at 100 ug/ml

Structure (SMILES)	IC50 [1]	IC50 [3]	other results
O=C(CCCCC(=O)Nc1ccc(Cl)cc1C(=O)O)Nc1ccc(Cl)cc1C(=O)O	8.7 µM		
O=C(CCCCC(=O)Nc1ccc(Br)cc1C(=O)O)Nc1ccc(Br)cc1	15 µM		
O=C(CCCCCCC(=O)Nc1ccc(Br)cc1C(=O)O)Nc1ccc(Br)cc1C(=O)O			IC50 [2]: 18 µM
O=C(Cc1cccc(CC(=O)Nc2ccc(Br)cc2C(=O)O)c1)Nc1ccc(Br)cc1C(=O)O		Not Active	
O=C(CCCCC(=O)Nc1ccccc1C(=O)O)Nc1ccc(Br)cc1		Not Active	
O=C(CCCCC(=O)Nc1ccccc1C(=O)O)Nc1ccccc1		Not Active	
O=C(Nc1ccc(Br)cc1C(=O)O)c1cncc(C(=O)Nc2ccc(Br)cc2C(=O)O)c1		Not Active	
COc1ccc(NC(=O)CCCCC(=O)Nc2ccc(OC)cc2C(=O)O)c(C(=O)O)c1	10.6 µM		
CN(CC(=O)Nc1ccc(Br)cc1C(=O)O)CC(=O)Nc1ccc(Br)cc1C(=O)O		Not Active	
O=C(Nc1ccc(Br)cc1C(=O)O)c1cccc(C(=O)Nc2ccc(Br)cc2C(=O)O)n1		Not Active	
CSc1ccc(NC(=O)CCCCC(=O)Nc2ccc(SC)cc2C(=O)O)c(C(=O)O)c1	19 µM		
O=C(CCCCC(=O)Nc1ccccc1C(=O)O)Nc1ccccc1C(=O)O	21 µM		
O=C(COCC(=O)Nc1ccc(Br)cc1C(=O)O)Nc1ccc(Br)cc1C(=O)O		Not Active	
O=C(CCCC(=O)Nc1ccc(Cl)cc1C(=O)O)Nc1ccc(Cl)cc1C(=O)O	8.7 µM		
O=C(CCCCCC(=O)Nc1ccc(Cl)cc1C(=O)O)Nc1ccc(Cl)cc1C(=O)O	9 µM		
O=C(Nc1ccc(Br)cc1C(=O)O)c1ccc(C(=O)Nc2ccc(Br)cc2C(=O)O)nc1	35 µM		
N#Cc1ccc(NC(=O)CCCCC(=O)Nc2ccc(C#N)cc2C(=O)O)c(C(=O)O)c1	> 100 µM		
O=C(CCCCC(=O)Nc1ccc(F)cc1C(=O)O)Nc1ccc(F)cc1C(=O)O	> 120 µM		
O=C(CCCCC(=O)Nc1ccc(Br)cc1)Nc1ccccc1		Not Active	
O=C(CCCCC(=O)Nc1ccc(Br)cc1C(=O)O)Nc1ccc(Br)cc1C(=O)O	3.1 µM		
CC(=O)Nc1ccc(NC(=O)CCCCC(=O)Nc2ccc(NC(C)=O)cc2C(=O)O)c(C(=O)O)c1			IC50 [4]: > 100 µM
O=C(CCCCC(=O)Nc1ccc(Br)cc1C(=O)O)Nc1ccccc1		Not Active	
Cc1ccc(NC(=O)CCCCC(=O)Nc2ccc(C)cc2C(=O)O)c(C(=O)O)c1	14 µM		
O=C(Nc1ccc(Br)cc1C(=O)O)c1ccnc(C(=O)Nc2ccc(Br)cc2C(=O)O)c1	66 µM		
